According to publication PMC8623395, “Virtual Screening and Molecular Dynamics Simulation Study of Influenza Polymerase PB2 Inhibitors” (Molecules, 2021):

How the values were obtained:
[1] = system: A/WSN/33; set-up: method as in PMID 20178582; conditions: cited from earlier work
[2] = system: influenza virus polymerase PB2 subunit; set-up: method as in PMID 30102858; conditions: cited from earlier work
[3] = system: influenza A/Puerto Rico/8/1934 (H1N1); assay: CPE inhibition assay in MDCK cells, H1N1; type: cell-based; conditions: Influenza A virus, 72 h
[4] = system: HK/68 (H3N2); assay: CPE inhibition assay in MDCK cells, H3N2; type: cell-based; conditions: Influenza A virus, 72 h
[5] = in vitro; conditions: dog
[6] = system: influenza virus ribonucleoprotein (RNP); set-up: method as in PMID 12755627; conditions: cited from earlier work
[7] = system: H3N2 influenza virus; set-up: method as in PMID 24134208; conditions: read-out: IC50 for the cytopathic effect (CPE) of H3N2 influenza virus; cited from earlier work

O=C(O)c1cc(-c2ccc(Br)cc2)nc2ccc(Cl)cc12 [CSV0C019002]
EC50 [1]: 4.27 µM

O=c1oc2cc(O)cc(O)c2c2ccccc12 [Compound D715-2441, 1,3-Dihydroxy-6H-benzo[c]chromen-6-one]
PB2 cap and m7 GTP binding [2]: prevent PB2 cap and m7 GTP binding in a dose-dependent manner

CCC(CC)O[C@@H]1C=C(C(=O)O)C[C@H](N)[C@H]1NC(C)=O [OC, Oseltamivir carboxylate, reference compound]
IC50 [3]: 0.95 µM | IC50 [4]: 0.01 µM | CC50 at 72 h [5]: > 100 µM

Nc1nc2c(c(=O)[nH]1)[n+](Cc1ccccc1)cn2CCCCO [RO0794238]
IC50 [6]: 45 µM

O=C(Nc1nc(-c2ccc(O)cc2)c(CCc2ccccc2)s1)c1cc(O)c(O)c(O)c1 [Str1614]
IC50 [3]: 26.3 ± 8.69 µM | IC50 [4]: 19.6 ± 0.93 µM | CC50 at 72 h [5]: > 100 µM

CCCCOc1ccc(-c2csc(Nc3ccc(CCC(=O)O)cc3)n2)cc1Cl [Str1916]
IC50 [3]: 4.82 ± 3.03 µM | IC50 [4]: 17 ± 7.94 µM | CC50 at 72 h [5]: > 100 µM

O=C(O)c1cc2ccccc2c(Cc2c(O)c(C(=O)O)cc3ccccc23)c1O [Str3107]
IC50 [3]: 18.2 ± 4.96 µM | IC50 [4]: 45.7 ± 3.01 µM | CC50 [5]: > 100 µM

O=C(O)c1cccc([C@@H](c2ccc(O)c(C(=O)O)c2)C(Cl)(Cl)Cl)c1 [Str5776]
IC50 [3]: 3.55 ± 1.23 µM | IC50 [4]: 2.51 ± 0.12 µM | CC50 at 72 h [5]: > 100 µM

O=C(CCCCC(=O)c1ccccc1C(=O)O)c1ccccc1 [Str6318]
IC50 [3]: 28.6 ± 9.46 µM | IC50 [4]: 11.2 ± 3.39 µM | CC50 at 72 h [5]: > 100 µM

COc1c2oc3c(OC)ccc(C(=O)N[C@@H](Cc4ccccc4)C(=O)O)c3nc-2cc(N)c1=O [Str7374]
IC50 [3]: 31.9 ± 8.15 µM | IC50 [4]: 55.4 ± 27 µM | CC50 at 72 h [5]: > 100 µM

O=C(O)[C@H]1C2CCC(CC2)[C@@H]1Nc1nc(-c2c[nH]c3ncc(F)cc23)ncc1F [VX-787, reference compound]
IC50 [3]: 0.004 ± 0.001 µM | IC50 [4]: 0.09 ± 0.02 µM | CC50 [5]: > 100 µM

C[n+]1cn(CCCCC(=O)O)c2nc(CCCCCC(=O)O)nc([O-])c21 [g]
IC50 [7]: 5.3 µM

Cc1nc([O-])c2c(n1)n(CC(=O)c1ccc(O)c(C(=O)O)c1)c[n+]2C [h]
IC50 [7]: 0.6 µM

Cc1nc([O-])c2c(n1)n(CC(=O)c1ccc(O)c(C(N)=O)c1)c[n+]2C [i]
IC50 [7]: 7.5 µM
